Source: ChEMBL document CHEMBL1137804, “Natural product-based anti-HIV drug discovery and development facilitated by the NCI developmental therapeutics program” (J Nat Prod, 2001)
Converted amounts (≈) assume the structure as drawn.

Key:
[1] = tested on: Human immunodeficiency virus 2; experiment: Antiviral activity against HIV2; format: functional, organism-based
[2] = Therapeutic index, ratio of cytotoxicity against human MT2 cells to EC50 for HIV1 LAI; format: cell-based; conditions: read-out: TI
[3] = tested on: Human immunodeficiency virus 1; experiment: Antiviral activity against HIV1 LAI in human MT2 cells assessed as virus-induced cytopathic effect after 72 hrs; format: functional; conditions: Human immunodeficiency virus 1, LAI, MT2, 72 h; read-out: ED50 (the source's name)
[4] = molecular target: Human immunodeficiency virus type 1 integrase (Human immunodeficiency virus 1, UniProt Q7ZJM1); experiment: Inhibition of HIV1 integrase-catalyzed disintegration activity
Sequence of Human immunodeficiency virus type 1 integrase (Q7ZJM1 whole entry): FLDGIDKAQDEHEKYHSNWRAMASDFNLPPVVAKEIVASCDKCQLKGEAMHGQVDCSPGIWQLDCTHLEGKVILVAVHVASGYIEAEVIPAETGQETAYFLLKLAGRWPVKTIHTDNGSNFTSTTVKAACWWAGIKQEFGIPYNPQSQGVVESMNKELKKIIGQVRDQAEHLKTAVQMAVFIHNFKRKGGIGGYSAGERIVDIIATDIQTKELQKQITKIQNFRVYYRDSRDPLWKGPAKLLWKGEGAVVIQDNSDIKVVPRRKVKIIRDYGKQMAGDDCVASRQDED

[5] = molecular target: Human immunodeficiency virus type 1 reverse transcriptase (Human immunodeficiency virus 1, UniProt Q72547); experiment: Inhibition of HIV1 reverse transcriptase
[6] = tested on: Human immunodeficiency virus 1; experiment: Antiviral activity against HIV1 RF in human CEM-SS cells assessed as inhibition of virus-induced cytopathic effect; format: functional, organism-based; conditions: Human immunodeficiency virus 1, RF
[7] = Therapeutic index, ratio of cytotoxicity against human CEM-SS cells to EC50 for HIV1 RF; format: cell-based; conditions: read-out: TI
[8] = Therapeutic index, ratio of cytotoxicity against human H9 cells to EC50 for HIV1 RF; format: cell-based; conditions: read-out: TI
[9] = tested on: Human immunodeficiency virus 1; experiment: Antiviral activity against HIV1 RF in human H9 cells assessed as inhibition of virus-induced cytopathic effect by formazan-based conventional colorimetric technique; format: functional, organism-based; conditions: Human immunodeficiency virus 1, RF
[10] = tested on: Human immunodeficiency virus 1; experiment: Antiviral activity against azidothymidine-resistant HIV1 G9106; format: functional, organism-based; conditions: Human immunodeficiency virus 1, G9106
[11] = tested on: Human immunodeficiency virus 1; experiment: Antiviral activity against pyridinone-resistant HIV1 A17; format: functional, organism-based; conditions: Human immunodeficiency virus 1, A17
[12] = tested on: Human immunodeficiency virus 1; experiment: Antiviral activity against HIV1 in human CEM-SS cells assessed as inhibition of virus-induced cytopathic effect; format: functional, organism-based; conditions: Human immunodeficiency virus 1, CEM-SS
[13] = Therapeutic index, ratio of cytotoxicity against human H9 cells to EC50 for HIV1 3B; format: cell-based; conditions: read-out: TI
[14] = tested on: Human immunodeficiency virus 1; experiment: Antiviral activity against HIV1 RF in human MT2 cells assessed as virus-induced cytopathic effect after 72 hrs; format: functional; conditions: Human immunodeficiency virus 1, RF, MT2, 72 h; read-out: ED50 (the source's name)
[15] = Therapeutic index, ratio of cytotoxicity against human MT2 cells to EC50 for HIV1 RF; format: cell-based; conditions: read-out: TI
[16] = tested on: Human immunodeficiency virus 1; experiment: Antiviral activity against HIV1 3B in human H9 cells assessed as inhibition of virus-induced cytopathic effect by formazan-based conventional colorimetric technique; format: functional, organism-based; conditions: Human immunodeficiency virus 1, 3B
H9 = experiment: Cytotoxicity against human H9 cells; format: cell-based
[17] = tested on: Human immunodeficiency virus 1; experiment: Antiviral activity against HIV1 RF in human CEM cells; format: functional, organism-based; conditions: Human immunodeficiency virus 1, RF, CCRF-CEM
[18] = tested on: Human immunodeficiency virus 1; experiment: Antiviral activity against HIV1 Rojo in human CEM cells; format: functional, organism-based; conditions: Human immunodeficiency virus 1, Rojo, CCRF-CEM

CSC[C@H](NC(=O)COc1cccc2cnccc12)C(=O)N[C@@H](Cc1ccccc1)[C@H](O)C(=O)N1CSC(C)(C)[C@H]1C(=O)NC(C)(C)C
EC50 [1]: 0.02 µM

O=C(/C=C/c1ccc(O)c(O)c1)O[C@@H]1C[C@](O)(C(=O)O)C[C@@H](OC(=O)/C=C/c2ccc(O)c(O)c2)[C@H]1O
selectivity ratio [2]: 150
EC50 [3]: 1 µg/mL (≈ 1.94 µM)
IC50 [4]: 1.28 µM

O=C(O[C@@H]1C[C@](OC(=O)c2cc(O)c(O)c(O)c2)(C(=O)O)C[C@@H](OC(=O)c2cc(O)c(O)c(O)c2)[C@H]1OC(=O)c1cc(O)c(O)c(O)c1)c1cc(O)c(O)c(O)c1
IC50 [5]: 0.8 µM
EC50 [6]: 0.5 µM
selectivity ratio [7]: 20

CSC[C@H](NC(=O)COc1cccc2cnccc12)C(=O)N[C@@H](Cc1ccccc1)[C@H](O)C(=O)N1CSC[C@H]1C(=O)NC(C)(C)C
selectivity ratio [8]: > 4.6
EC50 [9]: 0.02 µM

CC(C)=CCOc1c(CC=C(C)C)c(O)nc2ccccc12
EC50 [6]: 1.64 µM
selectivity ratio [7]: 17

CN1CCCCC1c1c(O)cc(O)c2c(=O)cc(-c3ccccc3)oc12 (centres undefined)
EC50 [6]: 0.26 µM
selectivity ratio [7]: 3

COC(=O)C(=O)O[C@]1(C(=O)O)C[C@@H](OC(=O)/C=C/c2ccc(O)c(O)c2)[C@H](O)[C@H](OC(=O)/C=C/c2ccc(O)c(O)c2)C1
selectivity ratio [2]: 87
EC50 [3]: 4 µg/mL (≈ 6.64 µM)
IC50 [4]: 0.946 µM

CCCc1cc(=O)oc2c3c(c4c(c12)OC(C)(C)CC4)O[C@@H](C)[C@H](C)[C@@H]3O [7,8-DIHYDROCALANOLIDE B]
EC50 [6]: 0.1 µM
selectivity ratio [7]: 99.8

C=CC(C)(C)C1(CC=C(C)C)C(=O)Nc2ccccc2C1=O (centres undefined) [BUCHAPINE]
IC50 [5]: 10 µM
EC50 [6]: 0.94 µM
selectivity ratio [7]: 31

CCCc1cc(=O)oc2c3c(c4c(c12)OC(C)(C)C=C4)O[C@H](C)[C@@H](C)[C@@H]3O [CALANOLIDE A]
EC50 [10]: ≤ 0.03 µM
EC50 [11]: ≤ 0.6 µM
EC50 [6]: 0.2 µM
selectivity ratio [7]: 103

CC(C)=CCC[C@]1(C)C=Cc2c(ccc3c2C(=O)C(O)=C(C2=C(C4=C(O)C(=O)c5c(ccc6c5C=C[C@@](C)(CCC=C(C)C)O6)C4=O)C(=O)c4c(ccc5c4C=C[C@@](C)(CCC=C(C)C)O5)C2=O)C3=O)O1 [CONOCURVONE]
EC50 [12]: 0.02 µM

CCCc1cc(=O)oc2c3c(c4c(c12)OC(C)(C)C=C4)O[C@@H](C)[C@H](C)[C@@H]3O [COSTATOLIDE]
EC50 [6]: 0.2 µM
selectivity ratio [7]: > 20

O=c1[nH]cnc2c1ncn2[C@H]1CC[C@@H](CO)O1 [DIDANOSINE]
selectivity ratio [8]: 1760
selectivity ratio [13]: 1760

Cc1cc(O)c(C=O)c2c1C(=O)Oc1c(COC(=O)/C=C/C(=O)O)c(O)c(C(=O)O)c(C)c1O2 [FUMARPROTOCETRARIC ACID]
EC50 [14]: 8.4 µM
selectivity ratio [15]: > 4.61

Nc1ccn([C@@H]2CS[C@H](CO)O2)c(=O)n1 [LAMIVUDINE]
EC50 [16]: 0.06 µM
EC50 [9]: 0.06 µM

Nc1ncnc2c1ncn2[C@@H]1O[C@H](CO)C[C@@H]1F [LODENOSINE]
EC50 [16]: 1.16 µM
selectivity ratio [8]: > 17
selectivity ratio [13]: > 17
EC50 [9]: 1.16 µM

COc1cc(C)cc2c(-c3c(O)cc(O)c4c3C[C@@H](C)N[C@@H]4C)cc(-c3cc(-c4c(O)cc(O)c5c4C[C@@H](C)N[C@@H]5C)c4cc(C)cc(OC)c4c3O)c(O)c12 [MICHELLAMINE A]
EC50 [12]: 1 µM

CO[C@@H]1C[C@@H](C[C@H]2CC[C@H](C)[C@H]([C@@H](C)C(=O)O)O2)O[C@]2(O[C@](C)([C@H]3CC[C@@](C)([C@@H]4O[C@@H]([C@H]5O[C@@](O)(CO)[C@H](C)C[C@@H]5C)C[C@@H]4C)O3)C[C@H]2C)[C@@H]1C [NIGERICIN]
EC50 [9]: 0.006 µM
IC50 (H9): 0.14 µM

COc1cc2c[n+](C)c3c4cc5c(cc4ccc3c2cc1OC)OCO5 [NITIDINE CHLORIDE]
EC50 [6]: 14 µM
selectivity ratio [7]: 3

C=CC(C)(CC/C=C(\C)CCC=C(C)C)c1cc(O)c(O)c(-c2cc(C(C)(C=C)CC/C=C(\C)CCC=C(C)C)cc(O)c2O)c1 (centres undefined) [PELTATOL A]
EC50 [12]: 8 µM

CC(C)CC(=O)N[C@H](C(=O)N[C@H](C(=O)N[C@@H](CC(C)C)[C@@H](O)CC(=O)N[C@@H](C)C(=O)N[C@@H](CC(C)C)[C@@H](O)CC(=O)O)C(C)C)C(C)C [PEPSTATIN]
EC50 [17]: 69 µM
EC50 [18]: 150 µM
EC50 [9]: 51.8 µM

CC(=O)O[C@@]12C[C@@H](C)[C@@]3(O)[C@@H](C=C(CO)C[C@]4(O)C(=O)C(C)=C[C@@H]34)[C@@H]1C2(C)C [PROSTRATIN]
EC50 [12]: ≤ 0.132 µM

Cc1cn([C@H]2C=C[C@@H](CO)O2)c(=O)[nH]c1=O [STAVUDINE]
EC50 [16]: 0.06 µM
EC50 [9]: 0.06 µM

C=C1C(=O)[C@]23C[C@H]1CC[C@H]2[C@]1(C)CCC[C@@](C)(C(=O)O)[C@H]1C[C@@H]3OC(C)=O [XYLOPINIC ACID]
EC50 [12]: ≤ 0.9 µM

Nc1ccn([C@H]2CC[C@@H](CO)O2)c(=O)n1 [ZALCITABINE]
EC50 [16]: 0.001 µM
selectivity ratio [8]: 200
selectivity ratio [13]: 200
EC50 [9]: 0.001 µM

Cc1cn([C@H]2C[C@H](N=[N+]=[N-])[C@@H](CO)O2)c(=O)[nH]c1=O [ZIDOVUDINE]
EC50 [16]: 0.001 µM
selectivity ratio [8]: > 1000
selectivity ratio [13]: > 1000
EC50 [9]: 0.001 µM
